What was measured:
[1] = Tests of efficiency of polyphosphonate compounds for preventing bonding of proteins; settings: compared with diphosphonic esters, sulfonates, phosphates, carboxylates and diphosphates
Experimental: One particular difficulty lies in identification of compounds with a particularly efficient behaviour for the required application.
This TMADP compound has been synthesised in a single step using hydroxyethylidene biphosphonic acid (HEDP) and glycidyltrimethylammonium chloride. The reaction was done in DMSO previously conserved on a molecular sieve. After dissolution of HEDP (2 g; 14.5×10^−3 mol) at 50° C. in 30 ml of DMSO, the epoxyde (2.2 g; 14.5×10^−3 mol) is added and the temperature is increased to 110° C. for 24 hours. The DMSO is then evaporated at low pressure and the raw product is dissolved in a minimum amount of distilled water. The TMADP product is then chromatographed on a cation exchanger resin (DOWEX 50WX8-20/50 Mesh, H+form). The column is eluted with distilled water and the pure product is collected at a pH of between 3.0 and 3.5.

[2] = Model of protection of a stainless steel plate against bonding of proteins
Excerpt: A sufficient coverage quantity of TMADP molecules on this model is […] per nm^2 of plaque surface area.

SMILES	efficiency of the compound (result in words) [1]	contamination by proteins ([2]; TMADP concentration 2.86×10^−4 mol.I-1, 10 minutes incubation of the plaque (stainless steel plate))	contamination by proteins ([2]; TMADP concentration about 1.4×10^−4 mol.I-1, stainless steel plate)
C[N+](C)(C)CCCCCC(P(=O)(O)O)P(=O)(O)O [6-trimethylammoniohexyl-1,1-bisphosphonic acid]	particularly conclusive results		
CC(OCC(O)C[N+](C)(C)C)(P(=O)(O)O)P(=O)(O)O.[Cl-] (stereo not shown) [TMADP, 2,2-diphosphono-5-hydroxy-3-oxa-6-hexyltrimethylammonium (TMADP) chloride]	particularly conclusive results	less than 10%	about 15%

Reference: patent US20050153938A1, “Polyphosphonate derivatives for toothpaste compositions” (Universite D'Angers, priority 2002, published 2005)
